Results reported in ChEMBL document CHEMBL5500363, “Discovery of novel ocotillol derivatives modulating glucocorticoid receptor/NF-κB signaling for the treatment of sepsis” (Eur J Med Chem, 2024).

system: not listed separately; assay: Cytotoxicity against mouse RAW264.7 cells assessed as cell viability at 40 uM incubated for 24 hrs by MTT assay relative to control; type: toxicity, cell-based; conditions: read-out: Activity

SMILES	viability at 24 h, 40 µM
CC(C)(C)OC(=O)NCCCCCCCC(=O)Nc1nc2c(s1)C[C@]1(C)[C@H]3C[C@@H](O)[C@@H]4C([C@]5(C)CC[C@@H](C(C)(C)O)O5)CC[C@@]4(C)[C@]3(C)CC[C@H]1C2(C)C (stereo not given in full)	> 90%
CC(C)(C)OC(=O)CCCC(=O)Nc1nc2c(s1)C[C@]1(C)[C@H]3C[C@@H](O)[C@@H]4C([C@]5(C)CC[C@@H](C(C)(C)O)O5)CC[C@@]4(C)[C@]3(C)CC[C@H]1C2(C)C (stereo not given in full)	> 90%
CC(C)(O)[C@@H]1CC[C@@](C)(C2CC[C@]3(C)[C@@H]2[C@H](O)C[C@@H]2[C@@]4(C)Cc5sc(NC(=O)OC(F)(F)F)nc5C(C)(C)[C@@H]4CC[C@]23C)O1 (stereo not given in full)	> 90%
CC(C)(O)[C@@H]1CC[C@@](C)(C2CC[C@]3(C)[C@@H]2[C@H](O)C[C@@H]2[C@@]4(C)CC[C@H](OC(=O)CCC(=O)Nc5nnc(Br)s5)C(C)(C)[C@@H]4CC[C@]23C)O1 (stereo not given in full)	> 90%
CC(C)(C)OC(=O)NCCCCCCCCCCC(=O)Nc1nc2c(s1)C[C@]1(C)[C@H]3C[C@@H](O)[C@@H]4C([C@]5(C)CC[C@@H](C(C)(C)O)O5)CC[C@@]4(C)[C@]3(C)CC[C@H]1C2(C)C (stereo not given in full)	> 90%
CC(C)(O)[C@H]1CC[C@@](C)(C2CC[C@]3(C)[C@@H]2[C@H](O)C[C@@H]2[C@@]4(C)Cc5sc(NC(=O)OC(F)(F)F)nc5C(C)(C)[C@@H]4CC[C@]23C)O1 (stereo not given in full)	> 90%
CC(C)(C)OC(=O)CCCC(=O)Nc1nc2c(s1)C[C@]1(C)[C@H]3C[C@@H](O)[C@@H]4C([C@]5(C)CC[C@H](C(C)(C)O)O5)CC[C@@]4(C)[C@]3(C)CC[C@H]1C2(C)C (stereo not given in full)	> 90%
CC(C)(O)[C@@H]1CC[C@@](C)(C2CC[C@]3(C)[C@@H]2[C@H](O)C[C@@H]2[C@@]4(C)CC[C@H](OC(=O)CCC(=O)Nc5nncs5)C(C)(C)[C@@H]4CC[C@]23C)O1 (stereo not given in full)	> 90%

system: RAW264.7; assay: Inhibition of LPS-induced NO production in mouse RAW264.7 cells at 5 uM pretreated for 2 hrs followed by LPS stimulation for 24 hrs by Griess assay relative to control; type: functional; conditions: time 26 hrs

SMILES	inhibition at 5 µM
CC(C)(C)OC(=O)NCCCCCCCC(=O)Nc1nc2c(s1)C[C@]1(C)[C@H]3C[C@@H](O)[C@@H]4C([C@]5(C)CC[C@@H](C(C)(C)O)O5)CC[C@@]4(C)[C@]3(C)CC[C@H]1C2(C)C (stereo not given in full)	19.9%
CC(C)(C)OC(=O)CCCC(=O)Nc1nc2c(s1)C[C@]1(C)[C@H]3C[C@@H](O)[C@@H]4C([C@]5(C)CC[C@@H](C(C)(C)O)O5)CC[C@@]4(C)[C@]3(C)CC[C@H]1C2(C)C (stereo not given in full)	20.4%
CC(C)(O)[C@@H]1CC[C@@](C)(C2CC[C@]3(C)[C@@H]2[C@H](O)C[C@@H]2[C@@]4(C)Cc5sc(NC(=O)OC(F)(F)F)nc5C(C)(C)[C@@H]4CC[C@]23C)O1 (stereo not given in full)	6.07%
CC(C)(O)[C@@H]1CC[C@@](C)(C2CC[C@]3(C)[C@@H]2[C@H](O)C[C@@H]2[C@@]4(C)CC[C@H](OC(=O)CCC(=O)Nc5nnc(Br)s5)C(C)(C)[C@@H]4CC[C@]23C)O1 (stereo not given in full)	34.8%
CC(C)(C)OC(=O)NCCCCCCCCCCC(=O)Nc1nc2c(s1)C[C@]1(C)[C@H]3C[C@@H](O)[C@@H]4C([C@]5(C)CC[C@@H](C(C)(C)O)O5)CC[C@@]4(C)[C@]3(C)CC[C@H]1C2(C)C (stereo not given in full)	1.99%
CC(C)(O)[C@H]1CC[C@@](C)(C2CC[C@]3(C)[C@@H]2[C@H](O)C[C@@H]2[C@@]4(C)Cc5sc(NC(=O)OC(F)(F)F)nc5C(C)(C)[C@@H]4CC[C@]23C)O1 (stereo not given in full)	8.01%
CC(C)(C)OC(=O)CCCC(=O)Nc1nc2c(s1)C[C@]1(C)[C@H]3C[C@@H](O)[C@@H]4C([C@]5(C)CC[C@H](C(C)(C)O)O5)CC[C@@]4(C)[C@]3(C)CC[C@H]1C2(C)C (stereo not given in full)	14.2%
CC(C)(O)[C@@H]1CC[C@@](C)(C2CC[C@]3(C)[C@@H]2[C@H](O)C[C@@H]2[C@@]4(C)CC[C@H](OC(=O)CCC(=O)Nc5nncs5)C(C)(C)[C@@H]4CC[C@]23C)O1 (stereo not given in full)	7.78%

system: RAW264.7; assay: Inhibition of LPS-induced NO production in mouse RAW264.7 cells at 10 uM pretreated for 2 hrs followed by LPS stimulation for 24 hrs by Griess assay relative to control; type: functional; conditions: time 26 hrs

SMILES	inhibition at 10 µM
CC(C)(C)OC(=O)NCCCCCCCC(=O)Nc1nc2c(s1)C[C@]1(C)[C@H]3C[C@@H](O)[C@@H]4C([C@]5(C)CC[C@@H](C(C)(C)O)O5)CC[C@@]4(C)[C@]3(C)CC[C@H]1C2(C)C (stereo not given in full)	29.9%
CC(C)(C)OC(=O)CCCC(=O)Nc1nc2c(s1)C[C@]1(C)[C@H]3C[C@@H](O)[C@@H]4C([C@]5(C)CC[C@@H](C(C)(C)O)O5)CC[C@@]4(C)[C@]3(C)CC[C@H]1C2(C)C (stereo not given in full)	41.2%
CC(C)(O)[C@@H]1CC[C@@](C)(C2CC[C@]3(C)[C@@H]2[C@H](O)C[C@@H]2[C@@]4(C)Cc5sc(NC(=O)OC(F)(F)F)nc5C(C)(C)[C@@H]4CC[C@]23C)O1 (stereo not given in full)	6.84%
CC(C)(O)[C@@H]1CC[C@@](C)(C2CC[C@]3(C)[C@@H]2[C@H](O)C[C@@H]2[C@@]4(C)CC[C@H](OC(=O)CCC(=O)Nc5nnc(Br)s5)C(C)(C)[C@@H]4CC[C@]23C)O1 (stereo not given in full)	47%
CC(C)(C)OC(=O)NCCCCCCCCCCC(=O)Nc1nc2c(s1)C[C@]1(C)[C@H]3C[C@@H](O)[C@@H]4C([C@]5(C)CC[C@@H](C(C)(C)O)O5)CC[C@@]4(C)[C@]3(C)CC[C@H]1C2(C)C (stereo not given in full)	6.18%
CC(C)(O)[C@H]1CC[C@@](C)(C2CC[C@]3(C)[C@@H]2[C@H](O)C[C@@H]2[C@@]4(C)Cc5sc(NC(=O)OC(F)(F)F)nc5C(C)(C)[C@@H]4CC[C@]23C)O1 (stereo not given in full)	21.2%
CC(C)(C)OC(=O)CCCC(=O)Nc1nc2c(s1)C[C@]1(C)[C@H]3C[C@@H](O)[C@@H]4C([C@]5(C)CC[C@H](C(C)(C)O)O5)CC[C@@]4(C)[C@]3(C)CC[C@H]1C2(C)C (stereo not given in full)	13.3%
CC(C)(O)[C@@H]1CC[C@@](C)(C2CC[C@]3(C)[C@@H]2[C@H](O)C[C@@H]2[C@@]4(C)CC[C@H](OC(=O)CCC(=O)Nc5nncs5)C(C)(C)[C@@H]4CC[C@]23C)O1 (stereo not given in full)	21.3%

system: RAW264.7; assay: Inhibition of LPS-induced NO production in mouse RAW264.7 cells at 20 uM pretreated for 2 hrs followed by LPS stimulation for 24 hrs by Griess assay relative to control; type: functional; conditions: time 26 hrs

SMILES	inhibition at 20 µM
CC(C)(C)OC(=O)NCCCCCCCC(=O)Nc1nc2c(s1)C[C@]1(C)[C@H]3C[C@@H](O)[C@@H]4C([C@]5(C)CC[C@@H](C(C)(C)O)O5)CC[C@@]4(C)[C@]3(C)CC[C@H]1C2(C)C (stereo not given in full)	39.4%
CC(C)(C)OC(=O)CCCC(=O)Nc1nc2c(s1)C[C@]1(C)[C@H]3C[C@@H](O)[C@@H]4C([C@]5(C)CC[C@@H](C(C)(C)O)O5)CC[C@@]4(C)[C@]3(C)CC[C@H]1C2(C)C (stereo not given in full)	60.4%
CC(C)(O)[C@@H]1CC[C@@](C)(C2CC[C@]3(C)[C@@H]2[C@H](O)C[C@@H]2[C@@]4(C)Cc5sc(NC(=O)OC(F)(F)F)nc5C(C)(C)[C@@H]4CC[C@]23C)O1 (stereo not given in full)	22.2%
CC(C)(O)[C@@H]1CC[C@@](C)(C2CC[C@]3(C)[C@@H]2[C@H](O)C[C@@H]2[C@@]4(C)CC[C@H](OC(=O)CCC(=O)Nc5nnc(Br)s5)C(C)(C)[C@@H]4CC[C@]23C)O1 (stereo not given in full)	70.2%
CC(C)(C)OC(=O)NCCCCCCCCCCC(=O)Nc1nc2c(s1)C[C@]1(C)[C@H]3C[C@@H](O)[C@@H]4C([C@]5(C)CC[C@@H](C(C)(C)O)O5)CC[C@@]4(C)[C@]3(C)CC[C@H]1C2(C)C (stereo not given in full)	17.1%
CC(C)(O)[C@H]1CC[C@@](C)(C2CC[C@]3(C)[C@@H]2[C@H](O)C[C@@H]2[C@@]4(C)Cc5sc(NC(=O)OC(F)(F)F)nc5C(C)(C)[C@@H]4CC[C@]23C)O1 (stereo not given in full)	37.5%
CC(C)(C)OC(=O)CCCC(=O)Nc1nc2c(s1)C[C@]1(C)[C@H]3C[C@@H](O)[C@@H]4C([C@]5(C)CC[C@H](C(C)(C)O)O5)CC[C@@]4(C)[C@]3(C)CC[C@H]1C2(C)C (stereo not given in full)	18.1%
CC(C)(O)[C@@H]1CC[C@@](C)(C2CC[C@]3(C)[C@@H]2[C@H](O)C[C@@H]2[C@@]4(C)CC[C@H](OC(=O)CCC(=O)Nc5nncs5)C(C)(C)[C@@H]4CC[C@]23C)O1 (stereo not given in full)	58.6%

system: RAW264.7; assay: Inhibition of LPS-induced NO production in mouse RAW264.7 cells pretreated for 2 hrs followed by LPS stimulation for 24 hrs by Griess assay; type: functional, cell-based; conditions: not given

IC50	SMILES
33.1 µM	CC(C)(C)OC(=O)NCCCCCCCC(=O)Nc1nc2c(s1)C[C@]1(C)[C@H]3C[C@@H](O)[C@@H]4C([C@]5(C)CC[C@@H](C(C)(C)O)O5)CC[C@@]4(C)[C@]3(C)CC[C@H]1C2(C)C (stereo not given in full)
11.6 µM	CC(C)(C)OC(=O)CCCC(=O)Nc1nc2c(s1)C[C@]1(C)[C@H]3C[C@@H](O)[C@@H]4C([C@]5(C)CC[C@@H](C(C)(C)O)O5)CC[C@@]4(C)[C@]3(C)CC[C@H]1C2(C)C (stereo not given in full)
41.6 µM	CC(C)(O)[C@@H]1CC[C@@](C)(C2CC[C@]3(C)[C@@H]2[C@H](O)C[C@@H]2[C@@]4(C)Cc5sc(NC(=O)OC(F)(F)F)nc5C(C)(C)[C@@H]4CC[C@]23C)O1 (stereo not given in full)
10.3 µM	CC(C)(O)[C@@H]1CC[C@@](C)(C2CC[C@]3(C)[C@@H]2[C@H](O)C[C@@H]2[C@@]4(C)CC[C@H](OC(=O)CCC(=O)Nc5nnc(Br)s5)C(C)(C)[C@@H]4CC[C@]23C)O1 (stereo not given in full)
50.6 µM	CC(C)(C)OC(=O)NCCCCCCCCCCC(=O)Nc1nc2c(s1)C[C@]1(C)[C@H]3C[C@@H](O)[C@@H]4C([C@]5(C)CC[C@@H](C(C)(C)O)O5)CC[C@@]4(C)[C@]3(C)CC[C@H]1C2(C)C (stereo not given in full)
35.6 µM	CC(C)(O)[C@H]1CC[C@@](C)(C2CC[C@]3(C)[C@@H]2[C@H](O)C[C@@H]2[C@@]4(C)Cc5sc(NC(=O)OC(F)(F)F)nc5C(C)(C)[C@@H]4CC[C@]23C)O1 (stereo not given in full)
52 µM	CC(C)(C)OC(=O)CCCC(=O)Nc1nc2c(s1)C[C@]1(C)[C@H]3C[C@@H](O)[C@@H]4C([C@]5(C)CC[C@H](C(C)(C)O)O5)CC[C@@]4(C)[C@]3(C)CC[C@H]1C2(C)C (stereo not given in full)
17.9 µM	CC(C)(O)[C@@H]1CC[C@@](C)(C2CC[C@]3(C)[C@@H]2[C@H](O)C[C@@H]2[C@@]4(C)CC[C@H](OC(=O)CCC(=O)Nc5nncs5)C(C)(C)[C@@H]4CC[C@]23C)O1 (stereo not given in full)
